According to publication PMC10820264, “Combining Experimental and Computational Methods to Produce Conjugates of Anticholinesterase and Antioxidant Pharmacophores with Linker Chemistries Affecting Biological Activities Related to Treatment of Alzheimer’s Disease” (Molecules, 2024):
Where two headings read alike, the source gives them in different places. Marks after values point to notes of the source that are not given here.

Columns and labels:
[1] = molecular target: peripheral anionic site of Electrophorus electricus AChE (EeAChE) (Electrophorus electricus, UniProt O42275); format: binding;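 also: compounds tested at 20 µM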
[2] = molecular target: Aβ42 (Homo sapiens, UniProt P05067); assay: Inhibition of Aβ42 self-aggregation, thioflavin T fluorescence; format: biochemical; details: for inhibition at 100 µM: read-out: Inhibition of Aβ42 Self-Aggregation
[3] = molecular target: Human erythrocyte AChE (Homo sapiens, UniProt P22303); assay: biochemical; format: biochemical; details: for AChE activity relative to tacrine (times more active): vs tacrine
Protocol: (§1) Human erythrocyte AChE and equine serum BChE were purchased from Milamed (Perm, Russia). Porcine liver CES, substrates, and reference compounds were from Sigma-Aldrich (St. Louis, MO, USA). The activity of enzymes was measured spectrophotometrically, as described in detail in [72] using ATCh iodide, BTCh iodide, and 4-NPA as substrates for AChE, BChE, and CES, respectively. Experimental conditions: K,Na—phosphate buffer (100 mM), 25 °C, pH 7.5 for AChE and BChE and pH 8.0 for CES assay. Measurements were carried out on a FLUOStar Optima microplate reader (BMG Labtech, Ortenberg, Germany).
(§2) Test compounds were dissolved in DMSO; the final concentration of solvent in the incubation mixture was 2% (v/v).

[4] = molecular target: equine serum BChE (Equus caballus, UniProt P81908); assay: biochemical; format: biochemical
Protocol: as §1, §2

[5] = ABTS radical cation scavenging assay; details: for ABTS•+-Scavenging Activity TEAC: Trolox equivalents; for time to reach the activity level of Trolox in ABTS radical scavenging: compound at 20 μM (IC50 of Trolox)
[6] = Ferric-reducing antioxidant power (FRAP) assay; details: Trolox equivalents
[7] = tested on: Porcine liver CES; assay: CES inhibition, spectrophotometric, 4-NPA substrate; format: biochemical
Protocol: as §1
Test compounds were dissolved in DMSO; the final concentration of solvent in the incubation mixture was 2% (v/v). […]

[8] = tested on: free radicals in mouse brain homogenate (TBHP-initiated); format: biochemical; details: read-out: Radical Scavenging Capacity, Luminol Chemiluminescence Assay IC50
[9] = tested on: spontaneous lipid peroxidation in mouse brain homogenate; format: biochemical
[10] = molecular target: eqBChE (Equus caballus, UniProt P81908); assay: biochemical; format: biochemical; details: for Ki: read-out: eqBChE Ki (competitive inhibition constant)
Protocol: (§3) A mechanism of AChE and BChE inhibition was assessed by a detailed analysis of enzyme kinetics with three increasing concentrations of inhibitor and six substrate concentrations, as described in detail in [72].

[11] = molecular target: AChE (Homo sapiens, UniProt P22303); assay: biochemical; format: biochemical; details: for Ki: read-out: AChE Ki (competitive inhibition constant)
Protocol: as §3

[12] = read-out: Inhibition of Spontaneous Lipid Peroxidation in Mouse Brain Homogenate, TBARS Assay IC50

Chain of Human erythrocyte AChE (P22303 other isoform, or with tags, fused parts or gaps): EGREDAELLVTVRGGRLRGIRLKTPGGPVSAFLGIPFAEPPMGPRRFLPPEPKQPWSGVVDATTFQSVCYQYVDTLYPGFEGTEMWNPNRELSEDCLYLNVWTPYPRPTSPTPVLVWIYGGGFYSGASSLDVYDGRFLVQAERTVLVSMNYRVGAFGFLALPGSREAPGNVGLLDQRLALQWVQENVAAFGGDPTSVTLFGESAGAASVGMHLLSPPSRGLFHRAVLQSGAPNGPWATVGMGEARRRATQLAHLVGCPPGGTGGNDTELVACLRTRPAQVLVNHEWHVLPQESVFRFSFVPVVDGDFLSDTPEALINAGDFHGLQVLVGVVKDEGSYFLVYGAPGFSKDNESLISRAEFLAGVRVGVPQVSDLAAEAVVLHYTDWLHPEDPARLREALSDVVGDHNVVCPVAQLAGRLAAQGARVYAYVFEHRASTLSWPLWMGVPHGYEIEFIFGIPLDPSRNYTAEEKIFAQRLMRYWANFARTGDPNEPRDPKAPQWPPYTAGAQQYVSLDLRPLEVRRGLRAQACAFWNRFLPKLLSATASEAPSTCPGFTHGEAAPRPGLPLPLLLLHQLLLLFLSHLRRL
Chain of AChE (P22303 other isoform, or with tags, fused parts or gaps): as above
Chain of Aβ42 (P05067 672-713): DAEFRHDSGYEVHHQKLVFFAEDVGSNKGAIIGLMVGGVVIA
Chain of peripheral anionic site of Electrophorus electricus AChE (EeAChE) (O42275 24-633): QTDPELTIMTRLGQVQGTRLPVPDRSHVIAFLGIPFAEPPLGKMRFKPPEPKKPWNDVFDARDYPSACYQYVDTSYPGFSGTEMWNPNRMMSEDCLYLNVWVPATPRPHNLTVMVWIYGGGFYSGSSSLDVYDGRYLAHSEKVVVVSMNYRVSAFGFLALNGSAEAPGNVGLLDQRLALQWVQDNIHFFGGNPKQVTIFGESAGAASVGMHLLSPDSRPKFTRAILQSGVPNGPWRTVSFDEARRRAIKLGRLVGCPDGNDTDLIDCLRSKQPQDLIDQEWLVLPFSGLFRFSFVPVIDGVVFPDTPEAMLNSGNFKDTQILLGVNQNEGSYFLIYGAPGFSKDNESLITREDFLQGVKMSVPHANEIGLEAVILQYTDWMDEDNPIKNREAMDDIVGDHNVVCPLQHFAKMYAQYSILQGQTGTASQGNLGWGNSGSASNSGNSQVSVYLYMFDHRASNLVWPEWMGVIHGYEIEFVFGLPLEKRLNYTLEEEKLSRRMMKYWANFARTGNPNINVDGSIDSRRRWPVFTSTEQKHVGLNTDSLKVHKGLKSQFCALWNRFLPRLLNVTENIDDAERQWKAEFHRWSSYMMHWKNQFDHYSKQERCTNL
Chain of equine serum BChE (P81908 whole entry): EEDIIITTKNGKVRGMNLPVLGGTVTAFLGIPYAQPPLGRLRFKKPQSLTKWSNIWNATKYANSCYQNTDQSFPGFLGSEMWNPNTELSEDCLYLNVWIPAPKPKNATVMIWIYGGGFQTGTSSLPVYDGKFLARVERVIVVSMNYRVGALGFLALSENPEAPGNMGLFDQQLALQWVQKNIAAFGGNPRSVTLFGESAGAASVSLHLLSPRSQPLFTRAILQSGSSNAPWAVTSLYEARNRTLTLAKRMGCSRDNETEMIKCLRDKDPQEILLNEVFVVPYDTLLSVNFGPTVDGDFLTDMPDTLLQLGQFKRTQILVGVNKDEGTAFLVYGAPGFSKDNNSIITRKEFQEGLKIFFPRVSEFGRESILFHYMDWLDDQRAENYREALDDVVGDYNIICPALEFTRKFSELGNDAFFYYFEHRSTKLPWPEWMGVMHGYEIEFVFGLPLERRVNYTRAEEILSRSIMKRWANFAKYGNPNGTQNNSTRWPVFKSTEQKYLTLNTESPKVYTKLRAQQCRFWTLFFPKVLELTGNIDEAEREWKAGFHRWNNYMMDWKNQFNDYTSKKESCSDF
Chain of eqBChE (P81908 whole entry): as above

Row | Compound | Propidium Displacement [1] | inhibition at 100 µM ([2]; Aβ42 50 µM, compound 100 µM) | IC50 [3] | IC50 [4] | IC50 [5] | ABTS•+-Scavenging Activity TEAC [5] | Ferric-Reducing Antioxidant Power TE [6] | CES % inhibition at 20 μM [7] | IC50 [8] | IC50 [9, 12] | other results
1 | CC(C)(C)c1cc(C=NCCCCCCCCNc2c3c(nc4ccccc24)CCC3)cc(C(C)(C)C)c1O [13d, 2,6-Di-tert-butyl-4-{[8-(2,3-dihydro-1H-cyclopenta[b]quinolin-9-ylamino)-octylimino]-methyl}-phenol] | 15.1 ± 0.9% | 49.4 ± 4.3% | 107 ± 9 nM | 41.7 ± 0.3 nM | 22700 ± 1200 nM | 0.85 ± 0.03 | 0.71 ± 0.03 | 26.3 ± 1.7% |  |  | 
2 | CC(C)(C)c1cc(C=NCCCCCCNc2c3c(nc4ccccc24)CCCC3)cc(C(C)(C)C)c1O [14c, 2,6-Di-tert-butyl-4-{[6-(1,2,3,4-tetrahydro-acridin-9-ylamino)-hexylimino]-methyl}-phenol] | 19.7 ± 1.5 **^,§ % | 62.4 ± 4.9% | 71.2 ± 1.2 nM | 55 ± 5 nM | 18600 ± 900 nM | 1.10 ± 0.05 | 0.71 ± 0.02 | 25.1 ± 1.9% |  |  | 
3 | CC(C)(C)c1cc(C=NCCCCCCCCNc2c3c(nc4ccccc24)CCCC3)cc(C(C)(C)C)c1O [14d, 2,6-Di-tert-butyl-4-{[8-(1,2,3,4-tetrahydro-acridin-9-ylamino)-octylimino]-methyl}-phenol] | 14.8 ± 1.0% | 70.4 ± 5.6% | 17.1 ± 1.6 nM | 9.39 ± 0.42 nM | 18200 ± 700 nM | 1.06 ± 0.03 | 0.70 ± 0.03 | 28.8 ± 2.0% | 1900 ± 100 nM | 20400 ± 2300 nM | AChE potency relative to compound 14a (times more potent) ([3]; vs 14a): 350 times; AChE activity relative to tacrine (times more active) [3]: ~ 40 times
4 | CC(C)(C)c1cc(C=NCCCCCCNc2c3c(nc4ccccc24)CCCCC3)cc(C(C)(C)C)c1O [15c, 2,6-Di-tert-butyl-4-{[6-(7,8,9,10-tetrahydro-6H-cyclohepta[b]quinolin-11-ylamino)-hexylimino]-methyl}-phenol] | 16.8 ± 1.2% | 43.4 ± 3.9% | 151 ± 13 nM | 10.6 ± 0.2 nM | 22300 ± 1100 nM | 0.90 ± 0.03 | 0.52 ± 0.02 | 25.4 ± 0.9% | 2300 ± 300 nM | 27600 ± 1700 nM | eqBChE αKi (non-competitive inhibition constant) [10]: 9.34 ± 0.62 nM; Ki [10]: 5.13 ± 0.1 nM; AChE αKi (non-competitive inhibition constant) [11]: 108 ± 3 nM; Ki [11]: 69.8 ± 5 nM
5 | CC(C)(C)c1cc(C=NCCCCCCCCNc2c3c(nc4ccccc24)CCCCC3)cc(C(C)(C)C)c1O [15d, 2,6-Di-tert-butyl-4-{[8-(7,8,9,10-tetrahydro-6H-cyclohepta[b]quinolin-11-ylamino)-octylimino]-methyl}-phenol] | 14.9 ± 1.2% | 63.5 ± 5% | 26 ± 2.4 nM | 6.24 ± 0.54 nM | 19600 ± 800 nM | 1.00 ± 0.03 | 0.73 ± 0.02 | 25.5 ± 1.1% | 3000 ± 100 nM | 29100 ± 2400 nM | eqBChE αKi (non-competitive inhibition constant) [10]: 5.68 ± 0.06 nM; type of BChE inhibition [10]: mixed type; Ki [10]: 4.91 ± 0.42 nM; AChE αKi (non-competitive inhibition constant) [11]: 31.4 ± 2.4 nM; type of AChE inhibition [11]: mixed type; Ki [11]: 19.9 ± 0.8 nM; BChE activity relative to tacrine (times more active) ([4]; vs tacrine): 5 times
6 | CC(C)(C)c1cc(CNCCCCCCCCNc2c3c(nc4ccccc24)CCC3)cc(C(C)(C)C)c1O [16d, 2,6-Di-tert-butyl-4-{[8-(2,3-dihydro-1H-cyclopenta[b]quinolin-9-ylamino)-octylamino]-methyl}-phenol] | 13.9 ± 1.1% | 54.6 ± 3.9% | 94 ± 6 nM | 17 ± 1.6 nM | 21300 ± 1200 nM | 1.00 ± 0.03 | 0.61 ± 0.01 | 17.2 ± 0.2% |  |  | 
7 | CC(C)(C)c1cc(CNCCNc2c3c(nc4ccccc24)CCCC3)cc(C(C)(C)C)c1O [17a, 2,6-Di-tert-butyl-4-{[2-(1,2,3,4-tetrahydro-acridin-9-ylamino)-ethylamino]-methyl}-phenol] | 13.4 ± 1.1% |  | 2880 ± 190 nM | 464 ± 41 nM | 16700 ± 800 nM | 1.20 ± 0.05 | 0.52 ± 0.02 | 18.4 ± 1.1% |  |  | 
8 | CC(C)(C)c1cc(CNCCCCCCNc2c3c(nc4ccccc24)CCCC3)cc(C(C)(C)C)c1O [17c, 2,6-Di-tert-butyl-4-{[6-(1,2,3,4-tetrahydro-acridin-9-ylamino)-hexylamino]-methyl}-phenol] | 16.1 ± 1.1% | 64.1 ± 5.7% | 70.2 ± 1.1 nM | 36.1 ± 23 nM | 15700 ± 600 nM | 1.32 ± 0.08 | 0.44 ± 0.02 | 18.5 ± 1.6% |  |  | time to reach the activity level of Trolox in ABTS radical scavenging [5]: less than 1 min
9 | CC(C)(C)c1cc(CNCCCCCCCCNc2c3c(nc4ccccc24)CCCC3)cc(C(C)(C)C)c1O [17d, 2,6-Di-tert-butyl-4-{[8-(1,2,3,4-tetrahydro-acridin-9-ylamino)-octylamino]-methyl}-phenol] | 13.4 ± 1.2% | 71.4 ± 4.9% | 15.1 ± 2 nM | 7.56 ± 0.42 nM | 15200 ± 700 nM |  | 0.57 ± 0.01 | 23.6 ± 2.1% | 11300 ± 1500 nM |  | AChE activity relative to tacrine (times more active) [3]: ~ 40 times; time to reach the activity level of Trolox in ABTS radical scavenging [5]: less than 1 min
10 | CC(C)(C)c1cc(CNCCCCNc2c3c(nc4ccccc24)CCCCC3)cc(C(C)(C)C)c1O [18b, 2,6-Di-tert-butyl-4-{[4-(7,8,9,10-tetrahydro-6H-cyclohepta[b]quinolin-11-ylamino)-butylamino]-methyl}-phenol] | 15.7 ± 1.2% |  | 436 ± 16 nM | 67.8 ± 6.1 nM | 14600 ± 500 nM |  | 0.38 ± 0.01 | 21.4 ± 1.8% |  |  | time to reach the activity level of Trolox in ABTS radical scavenging [5]: less than 1 min
11 | CC(C)(C)c1cc(CNCCCCCCNc2c3c(nc4ccccc24)CCCCC3)cc(C(C)(C)C)c1O [18c, 2,6-Di-tert-butyl-4-{[6-(7,8,9,10-tetrahydro-6H-cyclohepta[b]quinolin-11-ylamino)-hexylamino]-methyl}-phenol] | 12.5 ± 0.9% | 47.8 ± 3.8% | 103 ± 4 nM | 14.9 ± 0.3 nM | 21600 ± 1100 nM | 1.00 ± 0.03 | 0.43 ± 0.02 | 16.8 ± 0.5% | 14600 ± 800 nM | 24600 ± 2800 nM | eqBChE αKi (non-competitive inhibition constant) [10]: 17.3 ± 0.2 nM; Ki [10]: 7.83 ± 0.76 nM; AChE αKi (non-competitive inhibition constant) [11]: 101 ± 5 nM; Ki [11]: 83.1 ± 1.4 nM
12 | Cc1cc(C(C)(C)C)c(O)c(C(C)(C)C)c1 [BHT, butylated hydroxytoluene, reference compound] |  |  |  |  | 22400 ± 1400 nM | 0.98 ± 0.03 | 0.96 ± 0.02 | 5.6 ± 0.2% | 70400 ± 4100 nM | 6900 ± 300 nM | Inhibition of Aβ42 Self-Aggregation ([2]; Aβ42 50 µM, compound 100 µM): not detectable; IC50 ([9]; read-out: Inhibition of spontaneous lipid peroxidation in mice brain homogenate (TBARS Assay) IC50): 7000 nM; inhibition at 20 µM ([3]; read-out: AChE % inhibition at 20 μM): 6 ± 1.5%; inhibition at 20 µM ([4]; read-out: BChE % inhibition at 20 μM): 18.9 ± 1.7%
13 | O=c1c(O)c(-c2cc(O)c(O)c(O)c2)oc2cc(O)cc(O)c12 [Myricetin, reference compound] |  |  |  |  |  |  |  |  |  |  | inhibition at 100 µM [2]: 73.2 ± 5.8%
14 | Nc1c2c(nc3ccccc13)CCCC2 [Tacrine, reference compound] |  |  |  |  |  |  |  |  |  |  | Inhibition of Aβ42 Self-Aggregation ([2]; Aβ42 50 µM, compound 100 µM): minimal inhibition
15 | Propidium iodide [reference compound] |  |  |  |  |  |  |  |  |  |  | Inhibition of Aβ42 Self-Aggregation ([2]; Aβ42 50 µM, compound 100 µM): 89.3 ± 7.1 ^b %
